From ChEMBL document CHEMBL3639024, “Azinone-substituted azapolycycle MCH-1 antagonists, methods of making, and use thereof” (2013)

Target: Melanin-concentrating hormone receptor 1 (Homo sapiens, UniProt Q99705)
Assay: Binding Assay: Evaluation of the affinity of compounds for the human MCH-1 receptor was accomplished using 4-(3,4,5-tritritiumbenzyloxy)-1-(1-(2-(pyrrolidin-1-yl)ethyl)-1H-indazol-5-yl)pyridin-2(1H)-one and membranes prepared from stable CHO-K1 cells expressing the human MCH1 receptor obtained from Euroscreen (Batch 1138).
Format: cell membranes

Melanin-concentrating hormone receptor 1, sequence (Q99705 whole entry): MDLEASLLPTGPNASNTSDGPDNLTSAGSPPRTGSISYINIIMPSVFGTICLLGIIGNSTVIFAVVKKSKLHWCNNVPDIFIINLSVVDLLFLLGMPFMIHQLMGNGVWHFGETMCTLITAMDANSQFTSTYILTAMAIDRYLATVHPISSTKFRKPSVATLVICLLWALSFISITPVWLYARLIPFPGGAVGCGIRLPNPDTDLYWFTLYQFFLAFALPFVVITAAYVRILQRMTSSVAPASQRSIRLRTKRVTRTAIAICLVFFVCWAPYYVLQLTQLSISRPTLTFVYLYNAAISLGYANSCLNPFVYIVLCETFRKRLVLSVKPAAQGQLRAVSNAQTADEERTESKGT

Ki: 9.7 nM
Structure (SMILES): Cn1c2c(c3ccc(-n4ccc(OCc5ccc(F)cn5)cc4=O)cc31)CN1CCCC1C2 (stereo unspecified)
